# Test results taken from patent US7541020B2, “Aminoalkyl glucosaminide phosphate compounds and their use as adjuvants and immunoeffectors” (priority 1997, dated 2009).
# Where “and” joins values, the source holds several entries; their conditions need not be identical. Identical values can stand only once. Like-named read-outs stand apart in the source and are kept apart here.
# Tests used:
# ovalbumin = experiment: Stimulation of antiovalbumin antibody production; format: in vivo, BDF1 female mice; details: 50 μg AGP + 50 μg ovalbumin; second immunization day 21; bled 14 days after second injection
# Description: BDF1 female mice (8 per group) were immunized with 0.2 ml of emulsions containing 50 μg of the AGPs +50 μg of ovalbumin. A second immunization was administered 21 days post primary. Each mouse was bled 14 days after the second injection.
# influenza A/HK/68 [1] = format: in vivo, BALB/c mice; details: mouse, in vivo
# [2] = test system: hepatitis B surface antigen (HBsAg); experiment: Serum anti-HBsAg antibody titers after intranasal HBsAg + AGP-AF (ELISA); format: in vivo, BALB/c mice; details: for Anti HBsAg Titer^−1 IgG1 / Anti HBsAg Titer^−1 IgG2a: K = 10^3
# [3] = test system: hepatitis B surface antigen (HBsAg); experiment: Vaginal wash anti-HBsAg antibody after intranasal HBsAg + AGP-AF; format: in vivo, BALB/c mice; details: 10 days after the booster immunization; intranasal HBsAg + 10 μg AGP-AF
# Text: Vaginal samples were collected 10 days after the booster immunization and assayed for anti-HBsAg antibody.
# influenza A/HK/68 [4] = test system: influenza A/HK/68; parameters: species or system ICR mice; details: mouse, in vivo
# [5] = test system: hepatitis B surface antigen (HBsAg); experiment: Cytotoxic T-lymphocyte response to HBsAg with AGP in stable emulsion (AGP-SE); details: s.c. 2.0 μg HBsAg + 25 μg AGP/SE
# [6] = Fever response in rabbits (pyrogenicity); format: in vivo; details: 10 ug/kg; cumulative rise ≥1.5 degree in three rabbits is considered pyrogenic
# Description: The AGP compounds were also evaluated for their tendency to induce a fever response in rabbits. Each compound was formulated in 10% (v/v) ethanol/water solution at 100 mg/ml, then diluted with D5W to the desired concentration. The material was injected at 3 ml/kg body weight into 3 rabbits. The rise in core temperature of the rabbits was recorded.
# tetanus toxoid [7] = details: mouse, in vivo, sc
# E.G7 (OVA) cells = details: s.c. 25 μg OVA in AGP preparation, spleen cells 21 days later
# tetanus toxoid [8] = details: mouse, in vivo
# [9] = test system: hepatitis B surface antigen (HBsAg); details: for % Cytotoxicity (d16, post 2°): HBsAg + 10 μg AGP-AF intranasally; for % Cytotoxicity (d8, post 3°): intranasal HBsAg + 10 μg AGP-AF
# [10] = test system: hepatitis B surface antigen (HBsAg); experiment: Anti-HBsAg antibody titer with AGP-SE (ELISA plates coated with HBsAg or p72 peptide); details: sera day 28 post 2°, 25 μg AGP-SE
# influenza A/HK/68 [11] = details: mouse, in vivo
# [12] = day 22 post 2°, HBsAg + 10 μg AGP-AF intranasally
# [13] = serum, day 21 post 3°, intranasal HBsAg + 10 μg AGP-AF
# [14] = ELISA plates coated with p72 peptide
substance,measurement,setting,value
N-[(R)-3-Decanoyloxytetradecanoyl]-O-[2-deoxy-4-O-phosphono-2-[(R)-3-decanoyloxytetradecanoylamino]-3-O-[(R)-3-decanoyloxytetradecanoyl]-β-D-glucopyranosyl]-L-serinamide Triethylammonium Salt [B25],Anti-ovalbumin IgG1 T/C,ovalbumin,5.2
same,Anti-ovalbumin IgG1 Titer,ovalbumin,8500
same,Anti-ovalbumin IgG2a T/C,ovalbumin,0.5
same,Anti-ovalbumin IgG2a Titer,ovalbumin,163
same,Anti-ovalbumin IgG2b T/C,ovalbumin,5.0
same,Anti-ovalbumin IgG2b Titer,ovalbumin,1188
same,Anti-ovalbumin IgM T/C,ovalbumin,0.8
same,Anti-ovalbumin IgM Titer,ovalbumin,150
same,Anti-ovalbumin Total Ig T/C,ovalbumin,1.9
same,Anti-ovalbumin Total Ig Titer,ovalbumin,438
same,Anti-influenza Titer^−1 IgG1,influenza A/HK/68 [1],1600
same,Anti-influenza Titer^−1 IgG2a,influenza A/HK/68 [1],6400
same,Anti-influenza Titer^−1 IgG2b,influenza A/HK/68 [1],1600
same,Anti-influenza Titer^−1 Total IgG,influenza A/HK/68 [1],3200
same,Percent Survival,influenza A/HK/68 [1],100%
same,Anti HBsAg Titer^−1 IgA,[2]; [12],"3,200"
same,Anti HBsAg Titer^−1 IgG1,[2]; [12],256K#
same,Anti HBsAg Titer^−1 IgG2a,[2]; [12],500K
same,Anti HBsAg Titer^−1 IgG1,[2]; [13],1000K#
same,Anti HBsAg Titer^−1 IgG2a,[2]; [13],1000K
same,Anti HBsAg Titer^−1 IgA,[2]; [13],"25,600"
same,Vaginal Wash Anti-HBsAg Titer^−1 IgA,[3],800
same,Vaginal Wash Anti-HBsAg Titer^−1 IgG,[3],100
same,Percent Protection,influenza A/HK/68 [4],100%
same,Serum Titers IgG1,influenza A/HK/68 [4],"102,400"
same,Serum Titers IgG2a,influenza A/HK/68 [4],"819,200"
same,Serum Titers IgG2b,influenza A/HK/68 [4],"≧819,200"
same,Serum Titers Total IgG,influenza A/HK/68 [4],"≧819,200"
same,Vaginal Wash Samples IgA Secondary,influenza A/HK/68 [4],1280
same,Vaginal Wash Samples IgA Tertiary,influenza A/HK/68 [4],1280
same,Vaginal Wash Samples IgG Secondary,influenza A/HK/68 [4],640
same,Vaginal Wash Samples IgG Tertiary,influenza A/HK/68 [4],2560
same,% Cytotoxicity,"[5]; d16, post 2°, E:T 6.25:1",13%
same,% Cytotoxicity,"[5]; d16, post 2°, E:T 12.5:1",20%
same,% Cytotoxicity,"[5]; d16, post 2°, E:T 25:1",28%
same,% Cytotoxicity,"[5]; d16, post 2°, E:T 50:1",49%
same,% Cytotoxicity,"[5]; d17, post 1°, E:T 6.25:1",5%
same,% Cytotoxicity,"[5]; d17, post 1°, E:T 12.5:1",9%
same,% Cytotoxicity,"[5]; d17, post 1°, E:T 25:1",12%
same,% Cytotoxicity,"[5]; d17, post 1°, E:T 50:1",27%
same,"PYROGENICITY Total Rise ° C., 3 rabbits",[6],4.2 °C
same,Anti-tetanus toxoid IgG1 T/C,tetanus toxoid [7],2.68
same,Anti-tetanus toxoid IgG1 Titer,tetanus toxoid [7],"576,000"
same,Anti-tetanus toxoid IgG2a T/C,tetanus toxoid [7],1.67
same,Anti-tetanus toxoid IgG2a Titer,tetanus toxoid [7],"8,500"
same,Anti-tetanus toxoid IgG2b T/C,tetanus toxoid [7],3.28
same,Anti-tetanus toxoid IgG2b Titer,tetanus toxoid [7],"94,400"
same,Anti-tetanus toxoid IgM T/C,tetanus toxoid [7],2.0
same,Anti-tetanus toxoid IgM Titer,tetanus toxoid [7],"3,200"
same,Anti-tetanus toxoid Total IgG T/C,tetanus toxoid [7],8.93
same,Anti-tetanus toxoid Total IgG Titer,tetanus toxoid [7],"57,600"
same,% Cytotoxicity,E.G7 (OVA) cells; E:T 12.5:1,43%
same,% Cytotoxicity,E.G7 (OVA) cells; E:T 25:1,55%
same,% Cytotoxicity,E.G7 (OVA) cells; E:T 50:1,65%
same,Anti-Tetanus Toxoid Titer^−1 Fecal Extract IgA,tetanus toxoid [8],3200 and 6400
same,Anti-Tetanus Toxoid Titer^−1 Vaginal Wash IgA,tetanus toxoid [8],6400
same,"% Cytotoxicity (d16, post 2°)",[9]; E/T 6.25:1,9%
same,"% Cytotoxicity (d8, post 3°)",[9]; E/T 6.25:1,8%
same,"% Cytotoxicity (d16, post 2°)",[9]; E/T 12.5:1,13%
same,"% Cytotoxicity (d8, post 3°)",[9]; E/T 12.5:1,13%
same,"% Cytotoxicity (d16, post 2°)",[9]; E/T 25:1,20%
same,"% Cytotoxicity (d8, post 3°)",[9]; E/T 25:1,19%
same,"% Cytotoxicity (d16, post 2°)",[9]; E/T 50:1,36%
same,"% Cytotoxicity (d8, post 3°)",[9]; E/T 50:1,30%
same,Anti-HBsAg Titer^−1 HBsAg IgG1,[10]; ELISA plates coated with HBsAg,2048K*
same,Anti-HBsAg Titer^−1 HBsAg IgG2a,[10]; ELISA plates coated with HBsAg,2048K
same,Anti-HBsAg Titer^−1 p72-Peptide IgG1,[10]; [14],128K
same,Anti-HBsAg Titer^−1 p72-Peptide IgG2a,[10]; [14],64K
2-[(R)-3-Hexanoyloxytetradecanoylamino]ethyl2-Deoxy-4-O-phosphono-3-O-[(R)-3-hexanoyloxytetradecanoyl]-2-[(R)-3-hexanoyloxytetradecanoylamino]-α-D-glucopyranoside Triethylammonium Salt [B31],Anti-influenza serum titers IgG,influenza A/HK/68 [11],3200
same,Anti-influenza serum titers IgG1,influenza A/HK/68 [11],1600
same,Anti-influenza serum titers IgG2a,influenza A/HK/68 [11],400
same,Anti-influenza serum titers IgG2b,influenza A/HK/68 [11],1600
same,Protection,influenza A/HK/68 [11],70
